In US20090311217A1, “3-SUBSTITUTED-1H-INDOLE COMPOUNDS, THEIR USE AS MTOR KINASE AND PI3 KINASE INHIBITORS, AND THEIR SYNTHESES” (priority 2008, published 2009):

Columns and labels:
Type in all cases: biochemical
human TOR = target: T1, human TOR (Homo sapiens, UniProt P42345); assay: mTOR enzyme assay (DELFIA, His6-S6K substrate); conditions: read-out: mTOR Kinase Avg. IC50
T1 construct: FLAG

PI3K-alpha = PI3K-alpha (Homo sapiens, UniProt P42336); assay: PI3K-alpha fluorescence polarization assay; conditions: read-out: PI3Kα Avg. IC50
Sequence of PI3K-alpha (P42336 whole entry, species assumed): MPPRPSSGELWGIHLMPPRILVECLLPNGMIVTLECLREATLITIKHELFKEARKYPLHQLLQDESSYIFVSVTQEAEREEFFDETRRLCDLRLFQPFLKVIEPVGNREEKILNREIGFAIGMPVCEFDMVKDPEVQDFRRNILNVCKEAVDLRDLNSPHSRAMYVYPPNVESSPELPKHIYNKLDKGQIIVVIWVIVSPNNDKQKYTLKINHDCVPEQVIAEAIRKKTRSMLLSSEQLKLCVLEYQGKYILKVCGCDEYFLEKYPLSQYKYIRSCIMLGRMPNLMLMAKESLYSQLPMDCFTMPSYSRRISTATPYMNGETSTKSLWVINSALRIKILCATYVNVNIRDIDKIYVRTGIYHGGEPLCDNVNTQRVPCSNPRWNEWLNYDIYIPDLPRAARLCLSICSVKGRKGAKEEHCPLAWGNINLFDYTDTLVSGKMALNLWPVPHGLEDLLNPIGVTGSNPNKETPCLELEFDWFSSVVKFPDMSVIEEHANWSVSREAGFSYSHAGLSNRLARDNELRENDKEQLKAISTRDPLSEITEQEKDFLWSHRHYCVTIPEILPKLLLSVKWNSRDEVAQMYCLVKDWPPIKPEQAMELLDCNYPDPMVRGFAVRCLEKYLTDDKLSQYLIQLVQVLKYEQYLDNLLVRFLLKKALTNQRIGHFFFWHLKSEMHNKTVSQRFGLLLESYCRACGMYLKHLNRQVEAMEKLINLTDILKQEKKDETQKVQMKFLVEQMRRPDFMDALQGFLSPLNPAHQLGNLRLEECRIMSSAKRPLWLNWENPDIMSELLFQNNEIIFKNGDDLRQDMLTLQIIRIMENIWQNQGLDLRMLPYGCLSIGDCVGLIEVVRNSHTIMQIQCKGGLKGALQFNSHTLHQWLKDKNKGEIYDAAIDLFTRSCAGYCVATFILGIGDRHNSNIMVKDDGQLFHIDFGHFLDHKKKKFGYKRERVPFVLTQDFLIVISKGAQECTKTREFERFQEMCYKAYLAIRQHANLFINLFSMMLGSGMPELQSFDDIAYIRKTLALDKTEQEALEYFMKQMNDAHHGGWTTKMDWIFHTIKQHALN
Sequence of PI3K-alpha (P27986 whole entry partner, species assumed): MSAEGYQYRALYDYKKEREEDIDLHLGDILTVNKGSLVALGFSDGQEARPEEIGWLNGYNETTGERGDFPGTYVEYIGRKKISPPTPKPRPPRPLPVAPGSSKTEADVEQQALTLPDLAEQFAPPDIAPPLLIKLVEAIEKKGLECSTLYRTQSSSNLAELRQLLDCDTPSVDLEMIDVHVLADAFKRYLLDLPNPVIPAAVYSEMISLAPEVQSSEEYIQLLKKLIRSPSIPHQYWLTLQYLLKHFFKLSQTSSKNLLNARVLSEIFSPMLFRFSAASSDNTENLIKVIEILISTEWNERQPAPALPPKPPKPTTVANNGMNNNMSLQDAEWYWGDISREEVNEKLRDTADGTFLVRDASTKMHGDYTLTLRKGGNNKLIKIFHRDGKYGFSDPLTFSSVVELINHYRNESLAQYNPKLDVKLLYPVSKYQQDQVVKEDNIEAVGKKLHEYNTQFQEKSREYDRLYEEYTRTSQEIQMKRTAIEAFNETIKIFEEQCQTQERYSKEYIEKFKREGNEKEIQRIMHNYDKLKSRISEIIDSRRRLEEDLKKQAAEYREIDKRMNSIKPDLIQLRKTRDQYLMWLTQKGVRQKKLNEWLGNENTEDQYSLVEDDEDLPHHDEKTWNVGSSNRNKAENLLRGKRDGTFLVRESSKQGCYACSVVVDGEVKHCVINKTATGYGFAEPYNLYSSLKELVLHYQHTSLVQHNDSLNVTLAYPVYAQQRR

PI3K-gamma = PI3K-gamma (Homo sapiens, UniProt P48736); assay: PI3K-gamma fluorescence polarization assay; conditions: PI3Kγ Avg. IC50
Sequence of PI3K-gamma (P48736 whole entry, species assumed, the tested form may be a part): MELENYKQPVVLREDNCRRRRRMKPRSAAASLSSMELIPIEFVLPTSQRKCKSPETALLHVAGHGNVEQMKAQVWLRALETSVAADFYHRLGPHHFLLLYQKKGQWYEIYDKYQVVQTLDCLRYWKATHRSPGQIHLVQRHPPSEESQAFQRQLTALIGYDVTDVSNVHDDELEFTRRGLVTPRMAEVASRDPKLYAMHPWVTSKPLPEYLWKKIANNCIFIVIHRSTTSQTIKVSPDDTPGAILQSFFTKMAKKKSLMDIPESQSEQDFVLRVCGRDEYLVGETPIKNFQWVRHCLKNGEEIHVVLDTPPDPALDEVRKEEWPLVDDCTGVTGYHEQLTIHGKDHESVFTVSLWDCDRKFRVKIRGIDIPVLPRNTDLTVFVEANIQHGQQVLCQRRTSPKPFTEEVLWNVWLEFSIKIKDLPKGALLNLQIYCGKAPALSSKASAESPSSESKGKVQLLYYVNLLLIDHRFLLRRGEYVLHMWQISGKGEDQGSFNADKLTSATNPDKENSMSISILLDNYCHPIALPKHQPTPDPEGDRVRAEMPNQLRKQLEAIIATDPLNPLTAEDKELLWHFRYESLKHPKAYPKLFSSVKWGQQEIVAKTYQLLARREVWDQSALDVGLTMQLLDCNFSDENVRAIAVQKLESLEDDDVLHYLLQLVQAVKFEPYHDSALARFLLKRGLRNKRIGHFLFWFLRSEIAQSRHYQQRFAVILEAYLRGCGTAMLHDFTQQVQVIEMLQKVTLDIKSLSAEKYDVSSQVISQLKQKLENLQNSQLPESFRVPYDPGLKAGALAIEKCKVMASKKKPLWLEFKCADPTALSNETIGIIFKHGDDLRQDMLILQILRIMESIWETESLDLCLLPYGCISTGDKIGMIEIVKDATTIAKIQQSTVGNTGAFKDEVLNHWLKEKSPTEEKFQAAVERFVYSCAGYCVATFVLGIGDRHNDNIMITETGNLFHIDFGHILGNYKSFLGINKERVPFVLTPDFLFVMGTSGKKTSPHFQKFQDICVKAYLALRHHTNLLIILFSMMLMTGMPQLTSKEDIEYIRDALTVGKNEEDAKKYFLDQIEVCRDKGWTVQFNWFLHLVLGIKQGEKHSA
How it was run: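 FP competition read-out: PIP3 produced displaces BODIPY-TMR-IP4 (5 nM) from GST-GRP1 PH domain (100 nM). Kinase step: 5 ng enzyme, 2.5 μM diC8-PIP2, 25 μM ATP, pH 7 HEPES/MgCl2, 1 h, 25° C; EDTA stop.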

With `COc1ccc2c(c1)c(/C=C1\Oc3cc(NS(C)(=O)=O)ccc3C1=O)cn2CCCN(C)C` [Example 422, N-(2Z)-[2-({1-[3-(Dimethylamino)propyl]-5-methoxy-1H-indol-3-yl}methylene)-3-oxo-2,3-dihydro-1-benzofuran-6-yl]methanesulfonamide] the IC50 (human TOR) was greater than 20 µM, the IC50 (PI3K-alpha) was 9 µM and the IC50 (PI3K-gamma) was 7.64 µM.
In the case of `COc1ccc(Br)c2c1C(=O)/C(=C/c1cn(C)c3cccc(-c4ccccc4)c13)O2` [Example 423, (2Z)-7-Bromo-4-methoxy-2-[(1-methyl-4-phenyl-1H-indol-3-yl)methylene]benzofuran-3(2H)-one], the IC50 (human TOR) is reported as greater than 20 µM, the IC50 (PI3K-alpha) is reported as greater than 10 µM and the IC50 (PI3K-gamma) is reported as greater than 10 µM.
Work on `COc1ccc2c(c1)c(/C=C1\Oc3cc(CO)ccc3C1=O)cn2CCCN(C)C` [Example 424, (2Z)-2-({1-[3-(dimethylamino)propyl]-5-methoxy-1H-indol-3-yl}methylene)-6-(hydroxymethyl)-1-benzofuran-3(2H)-one] yielded an IC50 (human TOR) greater than 20 µM, an IC50 (PI3K-alpha) of 4.02 µM and an IC50 (PI3K-gamma) greater than 10 µM.
Work on `CN1CCN(CCn2cc(/C=C3\Oc4cc(O)cc(O)c4C3=O)c3c(-c4ccc(C(N)=O)cc4)cccc32)CC1` [Example 425, 4-{3-[(Z)-(4,6-Dihydroxy-3-oxo-1-benzofuran-2(3H)-ylidene)methyl]-1-[2-(4-methylpiperazin-1-yl)ethyl]-1H-indol-4-yl}benzamide] yielded an IC50 (human TOR) greater than 20 µM, an IC50 (PI3K-alpha) of 5.04 µM and an IC50 (PI3K-gamma) of 8.65 µM.
`COc1ccc2c(c1)c(/C=C1\Oc3cc(-c4ccc(NC(C)=O)cc4)ccc3C1=O)cn2CCCN(C)C` [Example 426, N-{4-[(2Z)-2-({1-[3-(Dimethylamino)propyl]-5-methoxy-1H-indol-3-yl}methylene)-3-oxo-2,3-dihydro-1-benzofuran-6-yl]phenyl}acetamide] showed an IC50 (human TOR) greater than 20 µM, an IC50 (PI3K-alpha) of 6.25 µM and an IC50 (PI3K-gamma) greater than 10 µM.
`COc1ccc2c(c1)c(/C=C1\Oc3cc(-c4cnc(N)nc4)ccc3C1=O)cn2CCCN(C)C` [Example 427, (2Z)-6-(2-Aminopyrimidin-5-yl)-2-({1-[3-(dimethylamino)propyl]-5-methoxy-1H-indol-3-yl}methylene)-1-benzofuran-3(2H)-one] showed an IC50 (human TOR) greater than 20 µM, an IC50 (PI3K-alpha) of 9.53 µM and an IC50 (PI3K-gamma) of 3.03 µM.
`Cn1cc(/C=C2\Oc3c(Br)ccc(O)c3C2=O)c2c(-c3ccccc3)cccc21` [Example 428, (2Z)-7-Bromo-4-hydroxy-2-[(1-methyl-4-phenyl-1H-indol-3-yl)methylene]benzofuran-3(2H)-one] was tested, and the IC50 (human TOR) was greater than 20 µM, the IC50 (PI3K-alpha) was greater than 5 µM and the IC50 (PI3K-gamma) was greater than 5 µM.
In the case of `COc1ccc2c(c1)c(/C=C1\Oc3cc(O)cc(Br)c3C1=O)c(C)n2CCN1CCN(C)CC1` [Example 429, (2Z)-4-Bromo-6-hydroxy-2-({5-methoxy-2-methyl-1-[2-(4-methylpiperazin-1-yl)ethyl]-1H-indol-3-yl}methylene)-1-benzofuran-3(2H)-one], the IC50 (human TOR) is reported as 0.5 µM, the IC50 (PI3K-alpha) is reported as 0.0675 µM and the IC50 (PI3K-gamma) is reported as 3.13 µM.
For `COc1ccc2c(c1)c(/C=C1\Oc3cc(O)cc(O)c3C1=O)c(C(=O)N1CCCC1)n2CCN1CCN(C)CC1` [Example 430, (2Z)-4,6-Dihydroxy-2-({5-methoxy-1-[2-(4-methylpiperazin-1-yl)ethyl]-2-(pyrrolidin-1-ylcarbonyl)-1H-indol-3-yl}methylene)-1-benzofuran-3(2H)-one], the IC50 (human TOR) was 0.115 µM, the IC50 (PI3K-alpha) was 0.0075 µM and the IC50 (PI3K-gamma) was 0.197 µM.
Compound `COc1cc(O)cc2c1C(=O)/C(=C/c1c(-c3ccccc3)n(C)c3ccccc13)O2` [Example 432, (2Z)-6-Hydroxy-4-methoxy-2-[(1-methyl-2-phenyl-1H-indol-3-yl)methylene]benzofuran-3(2H)-one] has an IC50 (human TOR) of 2.03 µM, an IC50 (PI3K-alpha) greater than 10 µM and an IC50 (PI3K-gamma) of 8.14 µM.
`COc1ccc2c(c1)SC(=Cc1c[nH]c3ccc(OC)cc13)C2=O` [Example 433, 6-Methoxy-2-[(5-methoxy-1H-indol-3-yl)methylene]-1-benzothiophen-3(2H)-one] was tested, and the IC50 (human TOR) was greater than 20 µM, the IC50 (PI3K-alpha) was greater than 10 µM and the IC50 (PI3K-gamma) was greater than 10 µM.
For `COc1ccc2[nH]cc(C=C3Oc4cc(SC)ccc4C3=O)c2c1` [Example 434, 2-[(5-Methoxy-1H-indol-3-yl)methylene]-6-(methylthio)-1-benzofuran-3(2H)-one], the IC50 (human TOR) was greater than 20 µM, the IC50 (PI3K-alpha) was greater than 10 µM and the IC50 (PI3K-gamma) was greater than 10 µM.
Compound `COc1ccc2[nH]cc(C=C3Oc4cc(S(C)(=O)=O)ccc4C3=O)c2c1` [Example 436, 2-[(5-Methoxy-1H-indol-3-yl)methylene]-6-(methylsulfonyl)-1-benzofuran-3(2H)-one] has an IC50 (human TOR) greater than 20 µM, an IC50 (PI3K-alpha) greater than 10 µM and an IC50 (PI3K-gamma) greater than 10 µM.
`Cn1c(-c2ccccc2)c(/C=C2\Oc3cc(O)cc(O)c3C2=O)c2c(C#N)cccc21` [Example 437, 3-[(Z)-(4,6-dihydroxy-3-oxo-1-benzofuran-2(3H)-ylidene)methyl]-1-methyl-2-phenyl-1H-indole-4-carbonitrile] showed an IC50 (human TOR) of less than 0.023 µM, an IC50 (PI3K-alpha) of 1.6 µM and an IC50 (PI3K-gamma) greater than 10 µM.
`CN1CCN(CCn2cc(/C=C3\Oc4cc(O)cc(O)c4C3=O)c3c(-c4ccc(N(C)C)cc4)cccc32)CC1` [Example 438, (2Z)-2-({4-[4-(Dimethylamino)phenyl]-1-[2-(4-methylpiperazin-1-yl)ethyl]-1H-indol-3-yl}methylene)-4,6-dihydroxy-1-benzofuran-3(2H)-one] gave an IC50 (human TOR) greater than 20 µM, an IC50 (PI3K-alpha) of 2.98 µM and an IC50 (PI3K-gamma) of 9 µM.
`CN1CCN(c2cccc3c2c(/C=C2\Oc4cc(O)cc(O)c4C2=O)cn3C)CC1` [Example 439, (2Z)-4,6-dihydroxy-2-{[1-methyl-4-(4-methylpiperazin-1-yl)-1H-indol-3-yl]methylene}-1-benzofuran-3(2H)-one] was tested, and the IC50 (human TOR) was 0.0338 µM, the IC50 (PI3K-alpha) was 4.28 µM and the IC50 (PI3K-gamma) was greater than 10 µM.
With `Cn1cc(/C=C2\Oc3cccc(O)c3C2=O)c2ccccc21` [Example 441, (2Z)-4-Hydroxy-2-[(1-methyl-1H-indol-3-yl)methylene]benzofuran-3(2H)-one] the IC50 (human TOR) was greater than 20 µM, the IC50 (PI3K-alpha) was greater than 10 µM and the IC50 (PI3K-gamma) was greater than 10 µM.
`Cn1c(-c2ccccc2)c(/C=C2\Oc3cccc(O)c3C2=O)c2ccccc21` [Example 442, (2Z)-4-Hydroxy-2-[(1-methyl-2-phenyl-1H-indol-3-yl)methylene]benzofuran-3(2H)-one] gave an IC50 (human TOR) greater than 20 µM, an IC50 (PI3K-alpha) greater than 5.1 µM and an IC50 (PI3K-gamma) greater than 5.1 µM.
For `Cn1cc(/C=C2\Oc3cc(O)ccc3C2=O)c2c(-c3ccccc3)cccc21` [Example 443, (2Z)-6-Hydroxy-2-((1-methyl-4-phenyl-1H-indol-3-yl)methylene)benzofuran-3(2H)-one], the IC50 (human TOR) was 1.24 µM, the IC50 (PI3K-alpha) was greater than 5.1 µM and the IC50 (PI3K-gamma) was greater than 5.1 µM.
`COc1ccc2c(c1)c(/C=C1\Oc3cc(O)cc(O)c3C1=O)c(C1CC1)n2CC(=O)N(C)C` [Example 444, 2-{2-Cyclopropyl-3-[(Z)-(4,6-dihydroxy-3-oxo-1-benzofuran-2(3H)-ylidene)methyl]-5-methoxy-1H-indol-1-yl}-N,N-dimethylacetamide] showed an IC50 (human TOR) of 0.0123 µM, an IC50 (PI3K-alpha) of 0.0655 µM and an IC50 (PI3K-gamma) of 0.1 µM.
`COc1ccc2c(c1)c(/C=C1\Oc3cc(O)cc(O)c3C1=O)c(C1CCC1)n2CCN1CCN(C)CC1` [Example 446, (2Z)-2-({2-Cyclobutyl-5-methoxy-1-[2-(4-methylpiperazin-1-yl)ethyl]-1H-indol-3-yl}methylene)-4,6-dihydroxy-1-benzofuran-3(2H)-one] showed an IC50 (human TOR) of 0.00375 µM, an IC50 (PI3K-alpha) of 0.0035 µM and an IC50 (PI3K-gamma) of 0.081 µM.
`COc1ccc2c(c1)c(/C=C1\Oc3cc(O)cc(O)c3C1=O)c(C1CCCCC1)n2CCN1CCN(C)CC1` [Example 447, (2Z)-2-({2-Cyclohexyl-5-methoxy-1-[2-(4-methylpiperazin-1-yl)ethyl]-1H-indol-3-yl}methylene)-4,6-dihydroxy-1-benzofuran-3(2H)-one] showed an IC50 (human TOR) of 0.0013 µM, an IC50 (PI3K-alpha) of 0.0017 µM and an IC50 (PI3K-gamma) of 0.105 µM.
Work on `COc1ccc2c(c1)c(/C=C1\Oc3cc(O)c(Cl)cc3C1=O)c(C)n2CCCN(C)C` [Example 448, (2Z)-5-Chloro-2-({1-[3-(dimethylamino)propyl]-5-methoxy-2-methyl-1H-indol-3-yl}methylene)-6-hydroxy-1-benzofuran-3(2H)-one] yielded an IC50 (human TOR) greater than 20 µM, an IC50 (PI3K-alpha) of 0.142 µM and an IC50 (PI3K-gamma) of 5.13 µM.
For `COc1ccc2c(c1)c(/C=C1\Oc3c(ccc(O)c3F)C1=O)c(C)n2CCCN(C)C` [Example 449, (2Z)-2-({1-[3-(Dimethylamino)propyl]-5-methoxy-2-methyl-1H-indol-3-yl}methylene)-7-fluoro-6-hydroxy-1-benzofuran-3(2H)-one], the IC50 (human TOR) was greater than 20 µM, the IC50 (PI3K-alpha) was 0.166 µM and the IC50 (PI3K-gamma) was greater than 11 µM.
In the case of `COc1ccc2c(c1)c(/C=C1\Oc3c(ccc(O)c3Cl)C1=O)c(C)n2CCN1CCN(C)CC1` [Example 451, (2Z)-7-Chloro-6-hydroxy-2-({5-methoxy-2-methyl-1-[2-(4-methylpiperazin-1-yl)ethyl]-1H-indol-3-yl}methylene)-1-benzofuran-3(2H)-one], the IC50 (human TOR) is reported as greater than 20 µM, the IC50 (PI3K-alpha) is reported as 0.375 µM and the IC50 (PI3K-gamma) is reported as 7.74 µM.
`COc1ccc2c(c1)c(/C=C1\Oc3cc(O)ccc3C1=O)c(C)n2CCN1CCCC1` [Example 452, (2Z)-6-Hydroxy-2-{[5-methoxy-2-methyl-1-(2-pyrrolidin-1-ylethyl)-1H-indol-3-yl]methylene}-1-benzofuran-3(2H)-one] gave an IC50 (human TOR) of 1.95 µM, an IC50 (PI3K-alpha) of 0.0495 µM and an IC50 (PI3K-gamma) of 0.99 µM.
For `COc1ccc2c(c1)c(/C=C1\Oc3cc(O)ccc3C1=O)c(C)n2CCN1CCCC1C` (stereo not drawn) [Example 453, (2Z)-6-Hydroxy-2-({5-methoxy-2-methyl-1-[2-(2-methylpyrrolidin-1-yl)ethyl]-1H-indol-3-yl}methylene)-1-benzofuran-3(2H)-one], the IC50 (human TOR) was 2.2 µM, the IC50 (PI3K-alpha) was 0.0495 µM and the IC50 (PI3K-gamma) was 0.55 µM.
In the case of `COc1ccc2c(c1)c(/C=C1\Oc3cc(O)ccc3C1=O)c(C)n2CCN1CCCCC1` [Example 454, (2Z)-6-Hydroxy-2-{[5-methoxy-2-methyl-1-(2-piperidin-1-ylethyl)-1H-indol-3-yl]methylene}-1-benzofuran-3(2H)-one], the IC50 (human TOR) is reported as 1.3 µM, the IC50 (PI3K-alpha) is reported as 0.032 µM and the IC50 (PI3K-gamma) is reported as 0.517 µM.
